The values below come from US10023593B2, “ALK kinase inhibitor, and preparation method and uses thereof” (BEIJING PEARL BIOTECHNOLOGY LIMITED LIABILITY COMPANY, priority 2014, dated 2018).

One assay has as its system NCI-H2228 cell line. Nature of the assay: CellTiter-Glo cell proliferation inhibition on NCI-H2228 cell line. Particulars: Homo sapiens, 96 h, NCI-H2228 cells, 5000 cells/well, 4 days drug treatment. It is filed as cell-based. On the procedure: 3. Cell Proliferation Inhibitory Activities of the Compounds of the Present Invention on NCI-H2228 Cell Line
? experimental method ? CellTiter-Glo® Luminescent Cell Viability Assay kit from Promega company was used to detect cell proliferation inhibitory activities of the compounds on NCI-H2228 cell line.
? instrument ? Envision 2104 plate reader from PerKinElmer company; Vi-Cell XR cell counter from Beckman Counter company; MCO-18AIC CO2 incubator from SANYO company.
? experiment material ? CellTiter-Glo® Luminescent Cell Viability Assay Kit (Promega company, catalog No. G7573); NCI-H2228 cell line (ATCC, catalog No. CRL-5935); RPMI-1640 medium (HyClone company, catalog No. SH30809.01B); fetal bovine serum (FBS) (Gibco company, catalog No. 10099-141); trypsin (Trypsin) (Gibco company, catalog No. 25200-072); PBS (HyClone company, catalog No. SH30256.01B); 96 wells cell culture plate (Corning company, catalog No. 3610); DMSO (AMRESCO company, catalog No. 0231); 96 wells plates (for diluting compounds) (CITOTEST company, catalog No. Ref36020096D);
? experimental condition ? NCI-H2228 cells in exponential growth phase were collected and treated with trypsin (Trypsin), and viable cells were counted by Vi-Cell XR cell counter. Cell suspension was adjusted to 62500 cells/ml with culture medium (RPMI-1640+10% FBS). 80 μl cell suspension was added into each well of 96 wells cell culture plate so that the final cell number of NCI-H2228 cells was 5000 cells/well. The cells were cultivated in an incubator with an atmosphere of 37° C., 5% CO2 and 95% humidity for 2 hours and then each well was added with 20 μl compounds in RPMI-1640 medium solution (the final concentration of DMSO was 0.5%). 4 days after drug treatment, each well was added with 50 μl CellTiter-Glo solution which was previously thawed and equilibrated to room temperature, and mixed for 2 minutes with microplate shaker. After placing at room temperature for 10 minutes, luminescence value was measured by PerkinElmer Envision 2104 plate reader and the data was analyzed.
? tested samples ? Compounds of the examples.
? data analysis ? Luminescence value of DMSO solvent control (Vvehicle control, which is the mean luminescence value from DMSO solvent control group)
Tested luminescence value (Vsample, which is the luminescence value from given concentration of compounds group) Inhibition rate (%)=(1−Vsample/Vvehicle control)×100
? data processing ? IC50 of compounds was calculated by using XLfit program in Excel.
A general note: ATP-based viability assays read luminescence as a measure of living cells.
As usually defined, the IC50 is the concentration at which inhibition is half-maximal. On to `Cc1cc(Nc2ncc(Cl)c(Nc3cn(C)nc3S(=O)(=O)C(C)C)n2)c(OC2CC2)cc1C1CCN(C2CCN(C)CC2)CC1` [Final product 158, 5-chloro-N^2-(2-cyclopropoxy-5-methyl-4-(1-(1-methyl-piperidin-4-yl)piperidin-4-yl)phenyl)-N^4-(3-(isopropylsulfonyl)-1-methyl-1H-pyrazol-4-yl)pyrimidin-2,4-diamine], for which the IC50 turned out to be 170 nM.

The same assay, now with this note: Homo sapiens, NCI-H2228, 96 h, NCI-H2228 cells, 5000 cells/well, 4 days drug treatment.
As for `Cc1cc(Nc2ncc(Cl)c(Nc3cn(C)nc3S(=O)(=O)CC(C)C)n2)c(OC2CC2)cc1[C@H]1CC[C@@H](N(C)C)CC1` [Final product 175, 5-chloro-N^2-(2-cyclopropoxy4-(4-(dimethylamino)cyclohexyl)-5-methylphenyl)-N^4-(3-(isobutylsulfonyl)-1-methyl-1H-pyrazol-4-yl) pyrimidin-2,4-diamine], the IC50 came out at 256 nM.
The same measure, in the same setting: for `Cc1cc(Nc2ncc(Cl)c(Nc3cn(C)nc3S(=O)(=O)CC(C)C)n2)c(OC2CC2)cc1[C@H]1CC[C@H](N(C)C)CC1` [Final product 176, 5-chloro-N^2-(2-cyclopropoxy4-(4-(dimethylamino)cyclohexyl)-5-methylphenyl)-N^4-(3-(isobutylsulfonyl)-1-methyl-1H-pyrazol-4-yl) pyrimidin-2,4-diamine] the value was 91 nM; for `CCN(CC)[C@H]1CC[C@@H](c2cc(OC3CC3)c(Nc3ncc(Cl)c(Nc4cn(C)nc4S(=O)(=O)CC(C)C)n3)cc2C)CC1` [Final product 177], 73 nM; for `Cc1cc(Nc2ncc(Cl)c(Nc3cn(C)nc3S(=O)(=O)CC(C)C)n2)c(OC2CC2)cc1[C@H]1CC[C@@H](NC2CC2)CC1` [Final product 179], 137 nM.
Still for that read-out and setting: the value for `Cc1cc(Nc2ncc(Cl)c(Nc3cn(C)nc3S(=O)(=O)CC(C)C)n2)c(OC2CC2)cc1[C@H]1CC[C@@H](NC(C)C)CC1` [Final product 181] was 106 nM; that for `Cc1cc(Nc2ncc(Cl)c(Nc3cn(C)nc3S(=O)(=O)C(C)C)n2)c(OC(C)C)cc1C1CCC(N(C)C)CC1` (centres unmarked) [Final product 183] was 172 nM.
In turn, `CCN(CC)[C@H]1CC[C@H](c2cc(OC(C)C)c(Nc3ncc(Cl)c(Nc4cn(C)nc4S(=O)(=O)C(C)C)n3)cc2C)CC1` [Final product 184] gave a 50% inhibitory concentration (IC50) of 188 nM.
On the same count and under the same terms, for `Cc1cc(Nc2ncc(Cl)c(Nc3cn(C)nc3S(=O)(=O)C(C)C)n2)c(OC(C)C)cc1[C@H]1CC[C@@H](NC2CC2)CC1` [Final product 185] the value was 296 nM; for `Cc1cc(Nc2ncc(Cl)c(Nc3cn(C)nc3S(=O)(=O)C(C)C)n2)c(OC(C)C)cc1[C@H]1CC[C@H](NC2CC2)CC1` [Final product 186], 253 nM; for `Cc1cc(Nc2ncc(Cl)c(Nc3cn(C)nc3S(=O)(=O)C(C)C)n2)c(OC(C)C)cc1[C@H]1CC[C@@H](NC(C)C)CC1` [Final product 187], 111 nM.
The compound `Cc1cc(Nc2ncc(Cl)c(Nc3cn(C)nc3S(=O)(=O)C(C)C)n2)c(OC2CC2)cc1[C@H]1CC[C@@H](N(C)C(C)C)CC1` [Final product 193] came in with an IC50 of 116 nM.
Still for that read-out and setting: the value for `Cc1cc(Nc2ncc(Cl)c(Nc3cn(C)nc3S(=O)(=O)C(C)C)n2)c(OC2CC2)cc1[C@H]1CC[C@H](N(C)C(C)C)CC1` [Final product 194] was 78 nM; that for `Cc1cc(Nc2ncc(Cl)c(Nc3cn(C)nc3S(=O)(=O)C(C)C)n2)c(OC2CC2)cc1[C@H]1CC[C@@H](NC2CC2)CC1` [Final product 195] was 116 nM.
`Cc1cc(Nc2ncc(Cl)c(Nc3cn(C)nc3S(=O)(=O)C(C)C)n2)c(OC2CC2)cc1[C@H]1CC[C@@H](NC(C)C)CC1` [Final product 197] came in with an IC50 of 72 nM.
The same measure, in the same setting: for `Cc1cc(Nc2ncc(Cl)c(Nc3cn(C)nc3S(=O)(=O)C(C)C)n2)c(OC2CC2)cc1[C@H]1CC[C@@H](NCCN(C)C)CC1` [Final product 199] the value was 225 nM; for `Cc1cc(Nc2ncc(Cl)c(Nc3cn(C)nc3S(=O)(=O)C(C)C)n2)c(OC2CC2)cc1[C@H]1CC[C@H](NCCN(C)C)CC1` [Final product 200], 210 nM.
On the same count and under the same terms, the value for `Cc1cc(Nc2ncc(Cl)c(Nc3cn(C)nc3S(=O)(=O)C(C)C)n2)c(OC2CC2)cc1C1CCC(N2CCCC2)CC1` (centres unmarked) [Final product 201] was 149 nM; that for `CC(=O)N1CCN([C@H]2CC[C@@H](c3cc(OC4CC4)c(Nc4ncc(Cl)c(Nc5cn(C)nc5S(=O)(=O)C(C)C)n4)cc3C)CC2)CC1` [Final product 203] was 189 nM; that for `Cc1cc(Nc2ncc(Cl)c(Nc3cn(C)nc3S(=O)(=O)C(C)C)n2)c(OC2CC2)cc1[C@H]1CC[C@H](NC(=O)C2CC2)CC1` [Final product 207, N-(4-(4-(5-chloro-4-(3-(isopropylsulfonyl)-1-methyl-1H-pyrazol-4-amine)pyrimidin-2-amine)-5-cyclopropoxy-2-methylphenyl)cyclohexyl) cyclopropyl carboxamide] was 154 nM.
